Experimental data taken from patent US20260325605A1, “INHIBITORS” (Zealand Pharma A/S, priority 2022, published 2026).
Like-named read-outs stand apart in the source and are kept apart here.

What was measured:
Kv1.3 = biological target: T1, Kv1.3 (Homo sapiens, UniProt P22001); assay: Patch clamp assay (QPatch), Kv1.3; assay type: cell-based; details: CHO cells stably expressing human Kv1.3, read-out: Potency IC50, Kv1.3
T1 construct: expressed in transfected cells
Method: Selectivity of Kv1.3 inhibitor peptides for Kv1.3 over other potassium ion channels (Kv1.1, Kv1.2 and Kv1.6) was determined using patch clamp assay.
Chinese Hamster Ovary (CHO) cell lines stably expressing exogenous human α-subunits of each potassium ion channel were grown and passaged under standard culture conditions.
The automated, chip-based planar patch clamp device QPatch® was used to quantitate the ionic currents. All recordings were made in the conventional whole-cell configuration after establishment of gigaohm seals. […] During experiments 0.1% (v/v) BSA was included as a vehicle in all external recording solutions. Currents were elicited from a holding potential of −80 mV using a voltage protocol, which shifted the voltage to 30 mV for 500 ms every 15 s.
Concentration-response relationships were established by cumulatively applying seven escalating concentrations of test sample to an individual cell with a recording period of 2 min per compound application.
The efficacy was determined as the mean charge for the last three sweeps at the end of each concentration application period from the cursor positions. The percent inhibition for each test dose application period was calculated as the reduction in mean cursor value (charge) relative to the cursor value measured at the end of the vehicle period and used to calculate the IC50 from the concentration response curve.

[1] = system: T-cell activation in human whole blood; assay: Example 5: IFN-g, IL-2 and IL-17A release in thapsigargin stimulated human whole blood; assay type: cell-based; details: 24 Hr, at least 2 replicate experiments
Description: Human whole blood was used to assess the potency of Kv1.3 inhibitor peptides on T-cell activation as determined by release of the cytokines IFN-g, IL-2 and IL-17A after stimulation with thapsigargin. Addition of thapsigargin activates a signalling cascade resulting in T cell proliferation and cytokine production, in which the Kv1.3 ion channel plays a key role. Activity of Kv1.3 inhibitors in human primary T cells can thus be measured in this experimental system.
Human whole blood was obtained from healthy blood donors and was collected after informed consent using Sodium Heparin blood sampling tubes (Becton, Dickinson and Company (BD), Cat #367876). Test peptides were diluted to 4× final testing concentrations in assay buffer (Dulbecco's Modified Eagle's medium (DMEM) with high glucose and GlutaMAX (3.97 mM L-alanine-L-glutamine) (Gibco Cat #61965026) supplemented with 25 mM HEPES buffer, 1 mM Sodium Pyruvate, 100 units/ml Penicillin, 100 μg/ml Streptomycin and 0.05% Casein from bovine milk (Sigma-Aldrich Cat #C4765)) and 25 μl was added to wells of a 96 well tissue culture plate. Then 50 μl human whole blood was added and incubated for minimum 5 minutes at room temperature to allow compound binding. Then 25 μl of 40 μM thapsigargin diluted in assay buffer was added to all wells of the assay plates to activate the cells, followed by incubation for 24 Hr at 37° C./5% CO2 in a humidified box. The assay plates were centrifuged for 10 min at 300 g at 4° C. and the supernatants were transferred to new plates. The concentrations of IFN-g, IL-2 and IL-17A released to the supernatants were measured using a tri-plex human cytokine detection kit (MSD Human U-Plex IFN-g, IL-2 and IL-17A kit; Meso Scale Discovery Cat #K15067L-2) and all three cytokines were measured using a MSD MESO QuickPlex SQ 120 instrument as described by the manufacturer (Meso Scale Discovery, Rockville, Maryland, USA).
To determine the potency of inhibition for the compounds, the cytokine concentration data were fitted using a three parameter logistic dose response model based on the formula Y=Bottom+(Top−Bottom)/(1+IC50/X), where Y is measured cytokine concentrations, X is compound concentrations and Top, bottom and IC50 are parameters fitted using the software Graphpad Prism version 5.04. The IC50 value calculated from the concentration response curve represents the compound concentration that gives an inhibition response halfway between the basal (Bottom) response and the maximal (Top) response.
All values are derived from at least 2 replicate experiments. All of the tested Kv1.3 blockers were able to inhibit cytokine production from human T cells present in human whole blood that was stimulated with thapsigargin.

[2] = system: KLH-induced DTH ear swelling in rats; assay: Example 11: Minimal effective dose in KLH-induced DTH model; assay type: in vivo, rat (Lewis)
Method: Healthy male Lewis rats aged 8-9 weeks were immunized on day 0 with 200 μL keyhole limpet hemocyanin (KLH) (from Sigma, cat.no. H7017) (4 mg/mL) emulsified in complete Freund's adjuvant (CFA) (Difco, cat.no. 263810) subcutaneously (SC) at the base of the tail.
To elicit a KLH-specific T cell-mediated local inflammation, rats were challenged intradermally at indicated timepoints (days 7, 9, 11 or 13 post-immunisation) with 40 μL KLH/NaCl 0.9% (2 mg/mL) in the left ear. Ear edemas were measured after 24-48 hrs and the right ear that was left untreated served as control. A schematic overview of the protocol is depicted in FIG. 1. […]
This study was conducted as described in example 8 with the difference that the rats were only challenged intradermally at days 7 or 11 post-immunisation (i.e. day 1 and day 5 after treatment) with 40 μL KLH/NaCl 0.9% (2 mg/mL) in the left ear. A schematic overview of the protocol is depicted in FIG. 5.
The doses of Kv1.3 inhibitor treatment able to reduce the DTH ear swelling response was investigated by comparing the response in rats (n=8/group) treated with vehicle to that of rats treated with different doses of peptide 100. Vehicle or peptide 100 dissolved in vehicle was administered SC (2 mL/kg) on day 6. The test dose of Kv1.3 inhibitor was 1, 3, 10, 30 or 100 nmol/kg. Test vehicle was 10 mM phosphate, 0.8% w/v NaCl, 0.05% w/v polysorbate20, pH 6.
As readout of efficacy, the thickness of the induced ear 24 hrs and 48 hrs after respective ear challenge was measured and compared to vehicle control. Ear thickness 24 hrs after challenge is shown in Table 15 and FIG. 8 and ear thickness 48 hrs after challenge is shown in Table 16 and FIG. 9.

T1 sequence (P22001 whole entry): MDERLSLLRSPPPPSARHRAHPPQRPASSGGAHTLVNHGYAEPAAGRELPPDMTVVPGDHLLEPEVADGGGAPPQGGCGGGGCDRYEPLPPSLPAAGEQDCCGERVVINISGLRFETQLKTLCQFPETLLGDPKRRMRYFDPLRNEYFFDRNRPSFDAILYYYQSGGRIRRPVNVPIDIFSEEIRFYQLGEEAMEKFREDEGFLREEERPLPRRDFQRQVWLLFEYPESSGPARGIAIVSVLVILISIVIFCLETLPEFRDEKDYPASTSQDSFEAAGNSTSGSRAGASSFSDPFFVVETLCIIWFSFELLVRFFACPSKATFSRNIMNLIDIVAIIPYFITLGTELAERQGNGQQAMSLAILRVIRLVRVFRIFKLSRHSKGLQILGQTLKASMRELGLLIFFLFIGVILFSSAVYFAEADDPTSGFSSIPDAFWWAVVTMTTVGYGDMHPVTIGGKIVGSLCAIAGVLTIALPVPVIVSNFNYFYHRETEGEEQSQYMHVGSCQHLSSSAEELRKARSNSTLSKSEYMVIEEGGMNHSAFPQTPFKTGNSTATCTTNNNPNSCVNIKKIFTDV

H-P[Nle]E[Nle]RC(1)SASVEC(2)KQKC(3)LAAIGSIFGKC(1)[Nle]NKKC(2)KC(3)YPR-OH [Peptide 100]
IC50 (Kv1.3): 330 pM
IC50 ([1]; read-out: Average IC50, IFN-g): 110 pM
IC50 ([1]; read-out: Average IC50, IL-2): 95 pM
IC50 ([1]; read-out: Average IC50, IL-17A): 150 pM
Mean ear thickness of KLH-induced ear ([2]; 1 nmol/kg s.c., challenge day 11, 24 hrs post-challenge, vehicle 0.902, p=0.0872): 0.872±0.037 mm
Mean ear thickness of KLH-induced ear ([2]; 1 nmol/kg s.c., challenge day 11, 48 hrs post-challenge, vehicle 0.876, p=0.1953): 0.854±0.038 mm
Mean ear thickness of KLH-induced ear ([2]; 3 nmol/kg s.c., challenge day 11, 24 hrs post-challenge, vehicle 0.902, p<0.0001): 0.814±0.014 mm
Mean ear thickness of KLH-induced ear ([2]; 3 nmol/kg s.c., challenge day 11, 48 hrs post-challenge, vehicle 0.876, p=0.0001): 0.814±0.019 mm
Mean ear thickness of KLH-induced ear ([2]; 10 nmol/kg s.c., challenge day 11, 24 hrs post-challenge, vehicle 0.902, p<0.0001): 0.796±0.043 mm
Mean ear thickness of KLH-induced ear ([2]; 10 nmol/kg s.c., challenge day 11, 48 hrs post-challenge, vehicle 0.876, p=0.0001): 0.794±0.036 mm
Mean ear thickness of KLH-induced ear ([2]; 30 nmol/kg s.c., challenge day 11, 24 hrs post-challenge, vehicle 0.902, p<0.0001): 0.754±0.017 mm
Mean ear thickness of KLH-induced ear ([2]; 30 nmol/kg s.c., challenge day 11, 48 hrs post-challenge, vehicle 0.876, p<0.0001): 0.736±0.03 mm
Mean ear thickness of KLH-induced ear ([2]; 100 nmol/kg s.c., challenge day 11, 24 hrs post-challenge, vehicle 0.902, p<0.0001): 0.751±0.009 mm
Mean ear thickness of KLH-induced ear ([2]; 100 nmol/kg s.c., challenge day 11, 48 hrs post-challenge, vehicle 0.876, p<0.0001): 0.731±0.016 mm
Mean ear thickness of KLH-induced ear ([2]; 24 hrs post-challenge, day 2 post-treatment, 100 nmol/kg SC): 0.736 mm
Mean ear thickness of KLH-induced ear ([2]; 24 hrs post-challenge, day 6 post-treatment, 1 nmol/kg SC): 0.872 mm
Mean ear thickness of KLH-induced ear ([2]; 24 hrs post-challenge, day 6 post-treatment, 3 nmol/kg SC): 0.814 mm
Mean ear thickness of KLH-induced ear ([2]; 24 hrs post-challenge, day 6 post-treatment, 10 nmol/kg SC): 0.796 mm
Mean ear thickness of KLH-induced ear ([2]; 24 hrs post-challenge, day 6 post-treatment, 30 nmol/kg SC): 0.754 mm
Mean ear thickness of KLH-induced ear ([2]; 24 hrs post-challenge, day 6 post-treatment, 100 nmol/kg SC): 0.751 mm
Mean ear thickness of KLH-induced ear ([2]; 48 hrs post-challenge, day 3 post-treatment, 100 nmol/kg SC): 0.671 mm
Mean ear thickness of KLH-induced ear ([2]; 48 hrs post-challenge, day 7 post-treatment, 1 nmol/kg SC): 0.854 mm
Mean ear thickness of KLH-induced ear ([2]; 48 hrs post-challenge, day 7 post-treatment, 3 nmol/kg SC): 0.814 mm
Mean ear thickness of KLH-induced ear ([2]; 48 hrs post-challenge, day 7 post-treatment, 10 nmol/kg SC): 0.794 mm
Mean ear thickness of KLH-induced ear ([2]; 48 hrs post-challenge, day 7 post-treatment, 30 nmol/kg SC): 0.736 mm
Mean ear thickness of KLH-induced ear ([2]; 48 hrs post-challenge, day 7 post-treatment, 100 nmol/kg SC): 0.731 mm
minimal dose to obtain effect ([2]; KLH-induced DTH model, s.c.): 3 nmol/kg
Mean ear thickness of KLH-induced ear ([2]; s.c. day 6, dose not given, challenge day 7, 24 hrs post-challenge, vehicle 0.849, p<0.0001): 0.736±0.026 mm
Mean ear thickness of KLH-induced ear ([2]; s.c. day 6, dose not given, challenge day 7, 48 hrs post-challenge, vehicle 0.777, p<0.0001): 0.671±0.022 mm
